Structures are written as SMILES.

The nature of experiment [1]: Expert taster comparison with and without Amadori compound, vanilla flavored milk. To be noted: expert tasters (5-7). As for the experimental part: (§1) The following formulations were prepared with and without Amadori compound and tasted by expert tasters (5-7) and compared. The Amadori compound was dosed in the consumable with no additional heating required.
A short description of experiment [2]: Expert taster comparison with and without Amadori compound, chocolate flavored milk. To be noted: 5% sugar, 0.05% carrageenan, expert tasters (5-7). As to the method: as §1
Experiment [3] can be described thus: Expert taster comparison with and without Amadori compound, almond milk. To be noted: 2 ppb; base: commercially available sweetened vanilla almond milk; expert tasters (5-7). As to the method: as §1
The nature of experiment [4]: Expert taster comparison with and without Amadori compound, strawberry flavored yoghurt. To be noted: base: 1.7% fat, 4% sugar, strawberry flavor 0.1%, expert tasters (5-7). As for the experimental part:
as §1
Strawberry Flavored Yoghurt

A short description of experiment [5]: Expert taster comparison with and without Amadori compound, plain low fat yoghurt. The note with it: base: 1.5% fat, 5% sugar, expert tasters (5-7). As for the experimental part:
as §1

Experiment [6] is described as follows: Expert taster comparison with and without Amadori compound, ice cream. The note with it: 10 ppb; base: 14.31% heavy whipping cream, 77.60% whole milk, 8% sucrose, 0.009% vanillin; expert tasters (5-7). As for the experimental part:
as §1

Experiment [7] can be described thus: Expert taster comparison with and without Amadori compound, cream filling. The note with it: 10 ppb; base: 66.4% sucrose, 32% palm oil, 0.2% salt, 0.4% vanilla extract, 1% water; expert tasters (5-7). As for the experimental part:
as §1

Experiment [8] in a line: Expert taster comparison with and without Amadori compound, cheese sauce. To be noted: 10 ppm, expert tasters (5-7). As for the experimental part:
as §1
Base: 33.46% Maltodextrin 10DE; 29.00% Starch Ultrasphere 2000; 10.00% Cheddar Cheese (white); 9.00% non-fat milk powder; 6.20% Whey; 5.00% canola shortening powder; 4.25% salt, 40 mesh; 0.35% yeast extract powder; 0.10% citric acid; 0.10% lactic acid; 2.54% cheese flavor.

On to `O=C(O)C1CCCN1CC1(O)OCC(O)C(O)C1O` (centres unmarked), for which the “taste/mouthfeel compared with base” value in experiment [1] (0.1 ppb, base: 2% milk fat, 4% sugar, 0.2% vanilla extract) was “sweeter linger, more powdery, more fatty body, full and creamy, more dairy impact, creamier mouthfeel, slight waxy mouthfeel”; in experiment [1] (1 ppb, base: 2% milk fat, 4% sugar, 0.2% vanilla extract) it was “sweeter, increase fullness, creamier mouthfeel, more dairy, slight waxy mouthfeel”; in experiment [1] (20 ppm, base: half full milk, 5% sugar, 0.1% vanillin) it was “slightly fuller, richer than base, fuller like fat, sweeter”; in experiment [1] (δ ppm, base: 2% fat milk, 4% sugar, 0.15% vanilla flavor), “sweeter, more rich creamy, slightly sweeter, juicy, slight metallic and mouth drying”; in experiment [2] (0.1 ppb, base: 2% milk fat, 2% cocoa powder), “creamy, full, richer chocolate, slight waxy, more cocoa impact”; in experiment [2] (1 ppb, base: 2% milk fat, 2% cocoa powder) it was “more chocolate linger, more chocolate, more complex, full mouthfeel, sweeter impression, thicker, waxy, slight tingle”. Further, the “taste/mouthfeel compared with base” value is “more rich, more body, more real chocolate profile, slight increase in bitterness” in experiment [2] (10 ppm, base: 2% fat milk, 20/cocoa powder); “more creamy, stronger vanilla flavor, more body, more creamy mouthfeel; sweeter and more salty” in experiment [3]; “hardly any effect noticed” in experiment [4] (1 ppb); “sweeter, more creamy, richer mouthfeel, more fruity” in experiment [4] (10 ppb); “less sour, sweeter, creamy” in experiment [5] (5 ppm); “increase upfront sweet, less sour” in experiment [5] (10 ppm). Moreover, the “taste/mouthfeel compared with base” value in experiment [5] (25 ppm) was “metallic linger, increase overall and upfront sweet”; in experiment [6], “more creamy, sweeter, slightly more body and mouth round effect, slightly more milk fat taste”; in experiment [7], “more fatty and creamy, sweeter and more salty, more buttery profile”; in experiment [8], “denser, cheesier, smooth, saltier, creamier mouthfeel, fresher dairy note, rich, slight metallic and astringent”.
Consider `O=C(O)[C@H](Cc1c[nH]cn1)NCC(=O)[C@@H](O)[C@H](O)[C@H](O)CO` [Fru-His, N-(1-deoxy-D-fructose-1-yl)-L-histidine], for which, in experiment [8], the “taste/mouthfeel compared with base” value is recorded as “more cheesy, slight acidic, aged, meaty, tingling, chalky, increased mouthfeel, creamier”.
Still for that read-out and setting: for `CC[C@H](C)[C@H](NCC(=O)[C@@H](O)[C@H](O)[C@H](O)CO)C(=O)O` [Fru-Ileu, N-(1-deoxy-D-fructose-1-yl)-L-isoleucine] the value was “slight acidic, bitter, creamier, increased saltiness”; for `CSCC[C@H](NCC(=O)[C@@H](O)[C@H](O)[C@H](O)CO)C(=O)O` [Fru-Met, N-(1-deoxy-D-fructose-1-yl)-L-methionine], “more rich, cheesy, umami, astringent, sharper cheese notes, salty”.
The same measure, in the same setting: for `O=C(O)C(CO)NCC1(O)OCC(O)C(O)C1O` (centres unmarked) [Fru-Ser] the value was “cheesy, creamy, rich, tingling, metallic, thick, smooth”.
